Article PMC5848165 (Toxins, 2018)
“Also recorded” adds a separate entry of the source. Residues, ends and D or L forms follow the SMILES beside them.

Tests used:
Nav1.7 D816R = molecular target: T1, Nav1.7 D816R (Homo sapiens, UniProt Q15858, D827R); experiment: Whole-cell patch clamp, Nav1.7 mutant D816R in HEK293 cells; assay type: cell-based
T1 construct: expressed in transfected cells; host or cells: HEK293 (HEK293T) cells, transient
From the text: We next investigated the critical residues in DIIS3-S4 linker that determined the sensitivity of Nav1.7 to JZTX-34. An acidic residue, D816, is present in the DIIS3-S4 linker of Nav1.7, while the corresponding residue in Nav1.5 is an alkaline amino acid, R800. To determine whether the acidic residue D816 occupies an important role in toxin binding, we constructed two mutants: D816R of Nav1.7 and R800D of Nav1.5. One µM of JZTX-34 inhibited 54.3 ± 5.2% of WT Nav1.7 currents (Figure 4A), but only 16.8 ± 4.6% currents of D816R were inhibited at the same concentration (Figure 4B). […] To further confirm the key role of D816R in blocking Nav1.7 by JZTX-34, we examined the effect of JZTX-34 on Nav1.5 mutant R800D. […] Thus, the acidic residue D816 in DIIS3-S4 linker may be critical for the sensitivity of Nav1.7 to JZTX-34.
Figure 4 Effects of JZTX-34 on mutants of Nav1.7 and Nav1.5. (A) Amino acid sequence alignment of DII S3-S4 linker of Nav1.5 and Nav1.7 and schematic diagram of sodium channel α subunit. The positions of amino acids of interest are shaded in bold black. […]
(§1) The HEK293T cells were maintained in standard culture conditions (5% CO2 and 37 °C). […] After culturing for 36–72 h, cells with obvious green fluorescence were selected for sodium currents recordings the internal solution for sodium currents recording that contained (in mM) 140 CsF, 5 NaCl, 10 HEPES, 3 Na2-ATP, and 10 EGTA. […]
(§2) Sodium currents were recorded from DRG, HEK293, and ND cells by the whole-cell patch-clamp technique at 25 °C. […] Experiments date were acquired from whole-cell Axon 700B patch clamp amplifier (Molecular Devices, Sunnyvale, CA, USA) and analyzed by the program Clampfit10.0 (Molecular Devices, Sunnyvale, CA, USA) and Sigmaplot. […]
Data from Axon 700B patch clamp were analyzed by Clampfit10.0 (Molecular Devices, Sunnyvale, CA, USA). […] The G-V curves were obtained by calculating the conductance (G) at each voltage (V) using the equation G = I/(V1 − Vrev), with Vrev being the reversal potential determined for each cell individually. […]

Nav1.8 = experiment: Whole-cell patch clamp, Nav1.8 in ND cells; assay type: cell-based, human; conditions: 1 µM, −10 mV from −80 mV
From the text: (§3) Nine sodium channel subtypes have been identified and classified as TTX-S (Nav1.1–Nav1.4, Nav1.6, and Nav1.7) or TTX-R types (Nav1.5, Nav1.8, and Nav1.9). […] However, the subtype selectivity of JZTX-34 on the subtype of sodium channel is still unknown. In this work, effects of JZTX-34 on VGSC subtypes (Nav1.1–Nav1.8) were examined. Nav1.1–Nav1.7 were transfected into HEK293 cells and Nav1.8 currents were expressed in ND cells. Inward sodium currents were elicited by a 50 ms depolarizing potential to −10 mV from a holding potential of −80 mV every 5 s. […] No effects on other sodium channel subtypes were found (Nav1.1, Nav1.2, Nav1.4–Nav1.6, and Nav1.8) (Figure S2). […]
as §1, §2

Nav1.4 = experiment: Whole-cell patch clamp, Nav1.4 in HEK293 cells; assay type: cell-based, rat; conditions: 1 µM, −10 mV from −80 mV
From the text: as §3, §1, §2

Nav1.5 = experiment: Whole-cell patch clamp, WT Nav1.5 in HEK293 cells; assay type: cell-based, rat; conditions: 1 µM, −10 mV from −80 mV
From the text: as §3, §1, §2

T1 sequence (Q15858 other isoform, or with tags, fused parts or gaps D816R): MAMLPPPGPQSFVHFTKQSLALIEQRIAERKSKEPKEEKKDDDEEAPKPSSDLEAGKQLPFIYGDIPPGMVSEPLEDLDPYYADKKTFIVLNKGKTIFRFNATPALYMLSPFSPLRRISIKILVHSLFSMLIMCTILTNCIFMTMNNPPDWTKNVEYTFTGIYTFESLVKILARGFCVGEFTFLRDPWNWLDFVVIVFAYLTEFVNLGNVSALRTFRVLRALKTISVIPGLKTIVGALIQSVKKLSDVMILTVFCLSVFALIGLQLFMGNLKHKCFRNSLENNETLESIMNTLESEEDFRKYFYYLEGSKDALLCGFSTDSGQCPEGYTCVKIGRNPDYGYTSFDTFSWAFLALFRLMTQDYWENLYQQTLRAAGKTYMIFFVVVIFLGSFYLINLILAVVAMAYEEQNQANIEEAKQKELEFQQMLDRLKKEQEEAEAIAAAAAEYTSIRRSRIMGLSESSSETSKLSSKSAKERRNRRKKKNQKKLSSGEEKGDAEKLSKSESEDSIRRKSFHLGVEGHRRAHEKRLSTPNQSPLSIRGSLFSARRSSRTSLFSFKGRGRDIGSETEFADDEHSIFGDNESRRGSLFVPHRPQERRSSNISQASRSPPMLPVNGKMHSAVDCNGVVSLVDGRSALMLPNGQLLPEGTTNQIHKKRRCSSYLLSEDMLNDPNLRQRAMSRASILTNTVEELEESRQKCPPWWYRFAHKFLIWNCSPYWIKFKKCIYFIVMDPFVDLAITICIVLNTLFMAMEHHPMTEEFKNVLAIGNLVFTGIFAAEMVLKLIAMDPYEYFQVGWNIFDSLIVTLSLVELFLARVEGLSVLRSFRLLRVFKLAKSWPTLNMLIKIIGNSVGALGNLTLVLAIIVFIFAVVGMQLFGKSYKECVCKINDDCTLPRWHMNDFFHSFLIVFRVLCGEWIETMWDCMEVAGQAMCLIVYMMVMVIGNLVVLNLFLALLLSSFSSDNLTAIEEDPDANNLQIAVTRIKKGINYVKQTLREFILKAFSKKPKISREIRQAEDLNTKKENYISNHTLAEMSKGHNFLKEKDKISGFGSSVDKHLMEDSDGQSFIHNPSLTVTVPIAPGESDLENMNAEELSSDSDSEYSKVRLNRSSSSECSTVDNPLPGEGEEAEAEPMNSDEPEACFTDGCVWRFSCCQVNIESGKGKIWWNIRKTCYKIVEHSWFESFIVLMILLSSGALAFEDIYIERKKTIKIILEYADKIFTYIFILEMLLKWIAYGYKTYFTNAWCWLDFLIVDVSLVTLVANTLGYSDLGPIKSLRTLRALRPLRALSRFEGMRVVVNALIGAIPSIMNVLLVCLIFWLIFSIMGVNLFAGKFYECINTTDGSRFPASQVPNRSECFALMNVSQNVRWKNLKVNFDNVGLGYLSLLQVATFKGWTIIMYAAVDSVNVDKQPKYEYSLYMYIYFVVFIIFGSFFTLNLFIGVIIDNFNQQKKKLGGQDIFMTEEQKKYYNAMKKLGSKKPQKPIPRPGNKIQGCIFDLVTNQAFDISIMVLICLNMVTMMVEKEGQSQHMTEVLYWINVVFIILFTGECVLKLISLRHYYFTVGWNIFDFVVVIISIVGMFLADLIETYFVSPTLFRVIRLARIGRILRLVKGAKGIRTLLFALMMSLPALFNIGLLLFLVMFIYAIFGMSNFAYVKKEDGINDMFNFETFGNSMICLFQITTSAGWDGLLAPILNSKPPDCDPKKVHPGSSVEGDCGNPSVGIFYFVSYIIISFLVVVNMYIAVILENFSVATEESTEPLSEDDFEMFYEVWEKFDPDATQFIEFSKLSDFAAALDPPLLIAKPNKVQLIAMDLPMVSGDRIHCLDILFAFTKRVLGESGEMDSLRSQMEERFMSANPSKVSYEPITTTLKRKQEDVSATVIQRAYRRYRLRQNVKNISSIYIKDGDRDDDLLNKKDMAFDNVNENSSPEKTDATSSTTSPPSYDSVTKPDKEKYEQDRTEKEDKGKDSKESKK
T1 sequence (Q07699 19-218, further chain): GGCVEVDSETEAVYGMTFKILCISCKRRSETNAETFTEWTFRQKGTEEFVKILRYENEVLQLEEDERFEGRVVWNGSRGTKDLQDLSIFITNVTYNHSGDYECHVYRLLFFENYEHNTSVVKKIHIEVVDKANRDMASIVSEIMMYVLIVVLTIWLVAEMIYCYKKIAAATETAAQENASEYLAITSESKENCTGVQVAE

CC(C)C[C@@H]1NC(=O)[C@H](Cc2c[nH]c3ccccc23)NC(=O)[C@H](CCC(=O)O)NC(=O)[C@H](CCCNC(=N)N)NC(=O)[C@@H](NC(=O)[C@H](C)N)CSSC[C@@H]2NC(=O)[C@@H]3CSSC[C@@H](C(=O)N[C@H](C(=O)N[C@@H](Cc4c[nH]c5ccccc45)C(=O)N[C@@H](CC(=O)O)C(=O)N[C@@H](Cc4c[nH]c5ccccc45)C(=O)N[C@H](C(=O)N[C@H](C(=O)O)C(C)C)[C@@H](C)O)C(C)C)NC(=O)[C@H](Cc4c[nH]cn4)NC(=O)[C@H](Cc4ccc(O)cc4)NC(=O)[C@@H]4CCCN4C(=O)[C@H](Cc4c[nH]c5ccccc45)NC(=O)[C@H](CCCCN)NC(=O)[C@H](CCCCN)NC(=O)[C@H](CCCNC(=N)N)NC(=O)[C@H](CSSC[C@H](NC(=O)CNC(=O)CNC1=O)C(=O)N[C@@H](CO)C(=O)N[C@@H](CCCCN)C(=O)N[C@@H](CC(=O)O)C(=O)N[C@@H](C)C(=O)N[C@@H](CC(=O)O)C(=O)N3)NC(=O)[C@H](CCC(=O)O)NC(=O)[C@H](CC(C)C)NC(=O)[C@H](Cc1c[nH]cn1)NC(=O)[C@H](C)NC2=O [JZTX-34, Jingzhaotoxin-34] (HELM PEPTIDE1{A.C.R.E.W.L.G.G.C.S.K.D.A.D.C.C.A.H.L.E.C.R.K.K.W.P.Y.H.C.V.W.D.W.T.V}$PEPTIDE1,PEPTIDE1,2:R3-16:R3|PEPTIDE1,PEPTIDE1,9:R3-21:R3|PEPTIDE1,PEPTIDE1,15:R3-29:R3$$$V2.0; N-terminus and C-terminus assumed)
inhibition at 1 µM (Nav1.7 D816R; HEK293, 1 µM, read-out: inhibition of Nav1.7 D816R currents): 16.8 ± 4.6%
IC50 (Nav1.7 D816R; Hill fit, n = 5): 19.5 µM
decrease of binding affinity by D816R vs WT Nav1.7 (Nav1.7 D816R; relative to WT Nav1.7): about 32 fold
effect on Nav1.8 currents (Nav1.8): No effects
effect on Nav1.4 currents (Nav1.4): No effects
effect on Nav1.5 currents (Nav1.5): No effects; also recorded: resistant
